Where two headings read alike, the source gives them in different places.

Results on seven compounds are retold here after US20160333043A1, “E-Selectin Antagonists Modified By Macrocycle Formation to the Galactose” (GLYCOMIMETICS, INC., priority 2014, published 2016).

For series [1] the following is noted: rcm bond, Grubbs 2nd generation catalyst, 25.0 °C.
A further series concerns the target T1, E-selectin (Homo sapiens, UniProt P16581).
T1 construct: fused on or other part: Immunoglobulin (Ig) part fused on as a handle for immobilising and dimerising
T1 sequence (P16581 22-175 limits assumed): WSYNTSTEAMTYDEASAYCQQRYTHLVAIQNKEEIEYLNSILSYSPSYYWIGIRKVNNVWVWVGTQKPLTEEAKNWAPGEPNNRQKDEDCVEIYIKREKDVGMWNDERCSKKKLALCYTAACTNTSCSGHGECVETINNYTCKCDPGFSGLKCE
Put plainly: E-selectin activity competitive binding assay (sLe^a polyacrylamide / streptavidin-HRP conjugate). The note with it: immobilized E-selectin/Ig chimera; concentration required to inhibit sLe^a binding by 50%; absorbance 450 nm. The source says:
An inhibition assay may be used to screen for antagonists of E-selectin. For example, an assay may be performed to characterize the capability of a compound described herein to inhibit (i.e., reduce, block, decrease, or prevent in a statistically or biologically significant manner) interaction of E-selectin with sLe^a or sLe^x. The inhibition assay may be a competitive binding assay, which allows the determination of IC50 values. By way of example, E-selectin/Ig chimera may be immobilized onto a matrix (e.g., a multi-well plate, which may be made from a polymer, such as polystyrene; a test tube, and the like); a composition may be added to reduce nonspecific binding (e.g., a composition comprising non-fat dried milk or bovine serum albumin or other blocking buffer routinely used by a person skilled in the art); the immobilized E-selectin may be contacted with the candidate compound in the presence of sLe^a comprising a reporter group under conditions and for a time sufficient to permit sLe^a to bind to the immobilized E-selectin; the immobilized E-selectin may be washed; and the amount of sLe^a bound to immobilized E-selectin may be detected. Variations of such steps can be readily and routinely accomplished by a person of ordinary skill in the art.
The inhibition assay to screen and characterize glycomimetic antagonists of E-selectin is a competitive binding assay, from which IC50 values may be determined. E-selectin/Ig chimera was immobilized in 96 well microtiter plates by incubation at 37° C. for 2 hours. To reduce nonspecific binding, bovine serum albumin was added to each well and incubated at room temperature for 2 hours. The plate was washed and serial dilutions of the test compounds were added to the wells in the presence of conjugates of biotinylated, sLe^a polyacrylamide with streptavidin/horseradish peroxidase and incubated for 2 hours at room temperature.
To determine the amount of sLe^a bound to immobilized E-selectin after washing, the peroxidase substrate, 3,3′,5,5′ tetramethylbenzidine (TMB) was added. After 3 minutes, the enzyme reaction was stopped by the addition of H3PO4, and the absorbance of light at a wavelength of 450 nm was determined.

Regarding `CC[C@H]1CCC[C@@H](O[C@@H]2O[C@@H]3COC(c4ccccc4)O[C@@H]3[C@@H]3O[C@@H](C(=O)OCc4ccccc4)CC=CCO[C@@H]23)[C@@H]1O[C@@H]1O[C@@H](C)[C@@H](OCc2ccccc2)[C@@H](OCc2ccccc2)[C@@H]1OCc1ccccc1` (stereo partly shown), the ring closure, yield of all isomers in series [1] (from C=CCO[C@H]1[C@H](O[C@@H]2CCC[C@H](CC)[C@H]2O[C@@H]2O[C@@H](C)[C@@H](OCc3ccccc3)[C@@H](OCc3ccccc3)[C@@H]2OCc2ccccc2)O[C@@H]2COC(c3ccccc3)O[C@@H]2[C@@H]1O[C@H](CC=C)C(=O)OCc1ccccc1, 16.0 h) was determined as 66%.

As to `COC(=O)C1CC=CCCO[C@H]2[C@H](O[C@@H]3CCC[C@H](C)[C@H]3O[C@@H]3O[C@@H](C)[C@@H](OCc4ccccc4)[C@@H](OCc4ccccc4)[C@@H]3OCc3ccccc3)O[C@H](COCc3ccccc3)[C@H](O)[C@@H]2O1` (stereo partly shown), the ring closure, yield of all isomers in series [1] (from C=CCCO[C@H]1[C@H](O[C@@H]2CCC[C@H](C)[C@H]2O[C@@H]2O[C@@H](C)[C@@H](OCc3ccccc3)[C@@H](OCc3ccccc3)[C@@H]2OCc2ccccc2)O[C@H](COCc2ccccc2)[C@H](O)[C@@H]1OC(CC=C)C(=O)OC, DCM, 2.0 h) was 82.5%.

`COC(=O)C1CC=CCO[C@H]2[C@H](O[C@@H]3CCC[C@H](C)[C@H]3O[C@@H]3O[C@@H](C)[C@@H](OCc4ccccc4)[C@@H](OCc4ccccc4)[C@@H]3OCc3ccccc3)O[C@H](COCc3ccccc3)[C@H](O)[C@@H]2O1` (stereo partly shown) showed a ring closure, yield of all isomers in series [1] (from C=CCO[C@H]1[C@H](O[C@@H]2CCC[C@H](C)[C@H]2O[C@@H]2O[C@@H](C)[C@@H](OCc3ccccc3)[C@@H](OCc3ccccc3)[C@@H]2OCc2ccccc2)O[C@H](COCc2ccccc2)[C@H](O)[C@@H]1OC(CC=C)C(=O)OC, DCM, 5.25 mM, 2.0 h) of 86%.

On to `CC1O[C@@H](OC2[C@H](C)CCC[C@H]2O[C@@H]2OC(CO)[C@H](O)C3O[C@@H](C(=O)O)CCCCOC32)[C@@H](O)C(O)[C@@H]1O` (stereo partly shown) [Compound 18a], for which, at E-selectin, the IC50 was 15.2 µM.

The compound `CC1O[C@@H](OC2[C@H](C)CCC[C@H]2O[C@@H]2OC(CO)[C@H](O)C3O[C@@H](C(=O)O)CCCOC32)[C@@H](O)C(O)[C@@H]1O` (stereo partly shown) [Compound 25] had a half-maximal inhibitory concentration (IC50) on E-selectin of 15.8 µM.

In the case of `CC[C@@H]1CCC[C@@H](O[C@@H]2OC(CO)[C@H](O)C3O[C@@H](C(=O)O)CCCCOC32)C1O[C@@H]1OC(C)[C@@H](O)C(O)[C@@H]1O` (stereo partly shown) [Compound 39], the IC50 on E-selectin turned out to be 7.3 µM.

At E-selectin, `CC[C@@H]1CCC[C@@H](O[C@@H]2OC(CO)[C@H](O)C3O[C@@H](C(=O)O)CCCOC32)C1O[C@@H]1OC(C)[C@@H](O)C(O)[C@@H]1O` (stereo partly shown) [Compound 47] returned an IC50 of 3.8 µM.
